We go through 4 molecules from patent US4704405A (priority 1986, dated 1987).

For data set [1] the following is noted: cited from earlier work; for bioavailability of the drug: tromethamine or sodium salts, British Pat. No. 2,059,768, German Pat. No. 134,672.
For data set [2] the following is noted: in vivo.

Turning to `COc1ccc2c(c1)c(CC(=O)O)c(C)n2C(=O)c1ccc(Cl)cc1` [indomethacin], the “bioavailability of the drug” value in data set [1] is “enhanced bioavailability”.

Turning to `CC1=C(CC(=O)O)c2cc(F)ccc2C1=Cc1ccc([S+](C)[O-])cc1` (centres unmarked) [sulindac], the duration of action entry in data set [1] (NSAID, reduction-oxidation prodrug) is listed as “long duration of action”. Besides, in data set [1] (sulindac, commercialized as CLINORIL), the onset of activity result is “slow onset of activity”.

In the case of `CC(=O)Oc1ccccc1C(=O)O` [aspirin], the “bioavailability of the drug” value in data set [1] is “enhanced bioavailability”.

Take `CC1=C(CC(=O)O)c2cc(F)ccc2/C1=C\c1ccc([S+](C)[O-])cc1` (centres unmarked) [sodium sulindac]: the absorption of sulindac entry in data set [2] is “Extremely rapid absorption”.
